# Measured values published in ChEMBL document CHEMBL5137049, “Discovery of a Novel Small-Molecule Inhibitor Disrupting TRBP-Dicer Interaction against Hepatocellular Carcinoma via the Modulation of microRNA Biogenesis” (J Med Chem, 2022).
# The source made the active and inactive calls. The calls are words filed in the database; no cut-off is given here.
# Key:
# [1] = test system: HeLa; test: Downregulation of miR-21 expression in human HeLa cells at 10 uM incubated for 6 hrs by qRT-PCR analysis; assay type: functional
# [2] = test system: HeLa; test: Downregulation of miR-30A expression in human HeLa cells at 10 uM incubated for 6 hrs by qRT-PCR analysis; assay type: functional
# [3] = test system: HepG2; test: Downregulation of miR-21 expression in human HepG2 cells at 10 uM incubated for 6 hrs by qRT-PCR analysis; assay type: functional
# [4] = test system: SK-HEP1; test: Inhibition of cell migration in human SK-HEP1 cells assessed as reduction of cell mobility at 1 to 25 uM measured at 24 hrs by well scratch method; assay type: functional, cell-based; conditions: dose 1-25 µM
# [5] = test system: HCCLM3; test: Inhibition of cell migration in human HCLLM3 cells at 1 to 25 uM measured after 24 hrs by crystal violet staining based transwell assay; assay type: functional; conditions: dose 1-25 µM
# [6] = test system: SK-HEP1; test: Downregulation of fibronectin expression in human SK-HEP1 cells at 1 to 25 uM by Western blot analysis; assay type: functional, cell-based; conditions: dose 1-25 µM
# [7] = test system: SK-HEP1; test: Downregulation of vimentin expression in human SK-HEP1 cells at 1 to 25 uM by Western blot analysis; assay type: functional, cell-based; conditions: dose 1-25 µM
# [8] = Acute toxicity in KM mouse assessed as effect on heart at 100 mg/kg, ip administered for 7 consecutive days by hematoxyin-eosin staining based analysis; assay type: organism-based; conditions: in vivo, 168 h, time 7 day
# [9] = Acute toxicity in KM mouse assessed as effect on liver at 100 mg/kg, ip administered for 7 consecutive days by hematoxyin-eosin staining based analysis; assay type: organism-based; conditions: in vivo, 168 h, time 7 day
# [10] = Acute toxicity in KM mouse assessed as effect on kidney at 100 mg/kg, ip administered for 7 consecutive days by hematoxyin-eosin staining based analysis; assay type: organism-based; conditions: in vivo, 168 h, time 7 day
# [11] = Toxicity in SCID mouse xenografted with human MHCC97-L cells assessed as change in body weight at 10 to 50 mg/kg, ip administered every 2 days for 4 weeks and measured on alternate days; assay type: organism-based; conditions: in vivo, 672 h, dose 10-50 mg/kg
# [12] = Toxicity in SCID mouse xenografted with human MHCC97-L cells assessed as effect on heart at 10 to 50 mg/kg, ip administered every 2 days for 4 weeks by hematoxyin-eosin staining based analysis; assay type: organism-based; conditions: in vivo, 672 h, dose 10-50 mg/kg
# [13] = Toxicity in SCID mouse xenografted with human MHCC97-L cells assessed as effect on liver at 10 to 50 mg/kg, ip administered every 2 days for 4 weeks by hematoxyin-eosin staining based analysis; assay type: organism-based; conditions: in vivo, 672 h, dose 10-50 mg/kg
# [14] = Toxicity in SCID mouse xenografted with human MHCC97-L cells assessed as effect on lung at 10 to 50 mg/kg, ip administered every 2 days for 4 weeks by hematoxyin-eosin staining based analysis; assay type: organism-based; conditions: in vivo, 672 h, dose 10-50 mg/kg
# [15] = test system: Mus musculus; test: Upregulation of E-cadherin expression in liver of SCID mouse xenografted with human SK-HEP1 cells at 10 to 50 mg/kg, ip administered every 2 days for 4 weeks by immunohistochemical staining analysis; assay type: functional, organism-based; conditions: dose 10-50 mg/kg
# [16] = test system: Mus musculus; test: Downregulation of beta-catenin expression in liver of SCID mouse xenografted with human SK-HEP1 cells at 10 to 50 mg/kg, ip administered every 2 days for 4 weeks by immunohistochemical staining analysis; assay type: functional, organism-based; conditions: dose 10-50 mg/kg
# [17] = test system: SK-HEP1; test: Downregulation of miR-135 expression in human SK-HEP1 cells at 10 uM by qRT-PCR analysis; assay type: functional, cell-based
# [18] = test system: HCCLM3; test: Upregulation of miR-125 expression in human HCCLM3 cells at 10 uM by qRT-PCR analysis; assay type: functional, cell-based
# [19] = Inhibition of TRBP (unknown origin) - recombinant Dicer (unknown origin) protein-protein interaction incubated for 3 hrs by GST pull-down assay; design: species or system Homo sapiens
# [20] = test system: SK-HEP1; test: Upregulation of E-cadherin expression level in TRBP siRNA transfected human SK-HEP1 cells incubated for 48 hrs by Western blotting analysis; assay type: functional, cell-based
# [21] = test system: SK-HEP1; test: Downregulation of N-cadherin expression level in TRBP siRNA transfected human SK-HEP1 cells incubated for 48 hrs by Western blotting analysis; assay type: functional, cell-based
# [22] = test system: SK-HEP1; test: Downregulation of beta-catenin expression level in TRBP siRNA transfected human SK-HEP1 cells incubated for 48 hrs by Western blotting analysis; assay type: functional, cell-based
# [23] = test system: HeLa; test: Upregulation of pri-miR-21 in human HeLa cells at 10 uM incubated for 6 hrs by qRT-PCR analysis; assay type: functional, cell-based
# [24] = test system: HeLa; test: Upregulation of pri-miR-155 in human HeLa cells at 10 uM incubated for 6 hrs by qRT-PCR analysis; assay type: functional, cell-based
# [25] = test system: HepG2; test: Upregulation of pri-miR-21 in human HepG2 cells at 10 uM incubated for 6 hrs by qRT-PCR analysis; assay type: functional, cell-based
# [26] = test system: HeLa; test: Upregulation of pre-miR-21 in human HeLa cells at 10 uM incubated for 6 hrs by qRT-PCR analysis; assay type: functional, cell-based
# [27] = test system: HeLa; test: Upregulation of pre-miR-214 in human HeLa cells at 10 uM incubated for 6 hrs by qRT-PCR analysis; assay type: functional, cell-based
# [28] = test system: HeLa; test: Upregulation of pre-miR-155 in human HeLa cells at 10 uM incubated for 6 hrs by qRT-PCR analysis; assay type: functional, cell-based
# [29] = test system: HepG2; test: Upregulation of pre-miR-21 in human HepG2 cells at 10 uM incubated for 6 hrs by qRT-PCR analysis; assay type: functional, cell-based
# [30] = test system: HepG2; test: Upregulation of pre-miR-122 in human HepG2 cells at 10 uM incubated for 6 hrs by qRT-PCR analysis; assay type: functional, cell-based
# [31] = test system: SK-HEP1; test: Downregulation of SUV39H1 expression in human SK-HEP1 cells at 1 to 25 uM by Western blotting analysis; assay type: functional, cell-based; conditions: dose 1-25 µM
# [32] = test system: SK-HEP1; test: Downregulation of ZEB2 expression in human SK-HEP1 cells at 1 to 25 uM by Western blotting analysis; assay type: functional, cell-based; conditions: dose 1-25 µM
# [33] = biological target: T1, Programmed cell death protein 4 (Homo sapiens) (UniProt Q53EL6); test: Inhibition of PDCD4 in human HeLa cells tranfected with pCI-neo-luciferase-PDCD4 3'-UTR plasmid assessed as fold change in luciferase signal by measuring relative luciferase unit by luciferase reporter assay; assay type: cell-based
# T1 sequence (whole entry): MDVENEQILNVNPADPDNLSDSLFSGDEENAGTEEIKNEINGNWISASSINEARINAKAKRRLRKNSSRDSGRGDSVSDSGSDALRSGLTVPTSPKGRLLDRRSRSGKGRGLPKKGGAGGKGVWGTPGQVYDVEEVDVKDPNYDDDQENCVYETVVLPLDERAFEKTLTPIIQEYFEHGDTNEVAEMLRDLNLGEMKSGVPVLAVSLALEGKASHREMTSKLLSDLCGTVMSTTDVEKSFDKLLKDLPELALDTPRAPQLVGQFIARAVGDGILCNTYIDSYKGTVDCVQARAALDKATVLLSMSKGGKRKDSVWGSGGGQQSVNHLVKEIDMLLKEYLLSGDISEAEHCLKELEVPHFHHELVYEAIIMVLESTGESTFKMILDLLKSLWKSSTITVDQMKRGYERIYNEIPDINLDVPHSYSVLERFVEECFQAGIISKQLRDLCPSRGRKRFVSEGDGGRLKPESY
# [34] = test system: HeLa; test: Inhibition of microRNA in human HeLa cells transfected with pCI-neo-luciferase-miR-21 plasmid assessed as change in luciferase signal by measuring relative luciferase unit by luciferase reporter assay; assay type: cell-based
structure (smiles),measurement,setting,value
CCOC(=O)c1nc(-c2ccc(OC)cc2)oc1C,Activity,[1],60%
same,Activity,[2],60%
same,Activity,[3],60%
same,inhibition,[4],Active
same,inhibition,[5],Active
same,Activity,[6],Active
same,Activity,[7],Active
same,Activity,[8],Non-Toxic
same,Activity,[9],Non-Toxic
same,Activity,[10],Non-Toxic
same,Activity,[11],Non-Toxic
same,Activity,[12],Non-Toxic
same,Activity,[13],Non-Toxic
same,Activity,[14],Non-Toxic
same,Activity,[15],Active
same,Activity,[16],Active
same,Activity,[17],Active
same,Activity,[18],Active
same,IC50,[19],12.3 µM
same,Activity,[20],Active
same,Activity,[21],Active
same,Activity,[22],Active
same,Activity,[23],Active
same,Activity,[24],Active
same,Activity,[25],Active
same,Activity,[26],Active
same,Activity,[27],Active
same,Activity,[28],Active
same,Activity,[29],Active
same,Activity,[30],Active
same,Activity,[31],Active
same,Activity,[32],Active
same,RLU,[33],2.13
same,RLU,[34],5.68
